Reference: patent EP2303911B1, “A SYNTHETIC PEPTIDE CONSISTING OF BONE FORMING PEPTIDE 2(BFP 2) FOR STIMULATING OSTEOBLAST DIFFERENTIATION, AND PHARMACEUTICAL COMPOSITION COMPRISING THE SYNTHETIC PEPTIDE” (Industry Foundation Of Chonnam National University, priority 2008, dated 2012)
No end group written: not given here.

Test system: cells
Assay: MTT assay for cytotoxicity
Assay type: cell-based
Settings: within a range of used concentrations, FIG. 3

Q: For “VEHDKEFFHPRYHHR [BFP 2, Val-Glu-His-Asp-Lys-Glu-Phe-Phe-His-Pro-Arg-Tyr-His-His-Arg]”, which cytotoxicity is on record?
A: not toxic to cells
